Assay [1] has as its system adenosine A2A knockout (A2AKO) mice. Briefly: in vivo bone formation by MicroCT in adenosine A2A knockout (A2AKO) mice, coated βTCP-HA scaffolds. The note with it: 4 weeks post-surgery, CGS21680 10 mM.
From the text: The remaining scaffold is shown in blue, and the new bone formation is shown in red.
For assay [2], the system named is 3 mm calvaria defect. The settings on record: application at the site of the bone defect. An excerpt: In vivo testing in mice: The 3-D scaffolds will be evaluated in a murine model using a 3 mm calvaria defect model.
The subject of assay [3] is 3 mm calvaria defect. The settings on record: murine model of calvarial bone regeneration; background statement; cited from earlier work.

We go through 2 compounds from patent US20160262894A1, “TISSUE REPAIR DEVICES AND SCAFFOLDS” (priority 2013, published 2016).

Turning to `CCNC(=O)[C@H]1O[C@@H](n2cnc3c(N)nc(NCCc4ccc(CCC(=O)O)cc4)nc32)[C@H](O)[C@@H]1O` [CGS21680], in assay [1] (compared with dipyridamole-coated scaffolds), the resorption of scaffolds result was “greater”.

`OCCN(CCO)c1nc(N2CCCCC2)c2nc(N(CCO)CCO)nc(N3CCCCC3)c2n1` [dipyridamole]: in assay [2], the “new bone growth at the site of a bone defect” value is recorded as “promotes new bone growth”. Further, the new bone formation result in assay [1] (collagen-coated βTCP-HA scaffolds, Dipyridamole 100 μM) is recorded as “did not differ from that induced in saline- or CGS21680-coated surfaces”. For the same compound, in assay [3], the bone regeneration entry was “exponentially stimulates bone regeneration”.
